Experimental data taken from patent publication US8921382B2, “Thiazolo[5,4-d] pyrimidines and their use as agrochemicals” (Dow AgroSciences, LLC., priority 2010, dated 2014).

Tests used:
Type in all cases: in vivo
[1] = system: Septoria tritici; experiment: Septoria Blotch of Wheat foliar spray test, inoculated one day after treatment; conditions: Zymoseptoria tritici, wheat plants, read-out: Activity against Fungal Diseases SEPTTR (percent disease control); for pest or weed control at 25 ppm: Tested at 25 ppm; for pest or weed control at 200 ppm: applied to foliage at 200 ppm
Description: (§1) Fungicide activity data are the level (in percent) at which the given disease was controlled when the given compound was applied to the foliage of the plants at 200 ppm. In a few cases (noted in the table) the compound was applied to the plants at 25 ppm or 3 ppm. The plants were inoculated with the fungus one day after treatment. ***=80-100% control; **=50-79% control; *=0-49% control. […] The activity of the compounds as effective fungicides was determined by applying the compounds to plants and observing control of fungal disease. […] All plants were inoculated with spores of the fungus the day after treatment, then incubated in an environment conducive to disease development. Disease severity was evaluated 4 to 25 days (d) later, depending on the speed of disease development. The following experiments were performed in the laboratory to determine the fungicidal efficacy of the compounds of the invention. […] Each pot contained 3-10 seedlings. These plants were sprayed until wet with the formulated test compound. On the following day, the leaves were inoculated with an aqueous spore suspension of Septoria tritici and the plants were kept in high humidity (one day in a dark dew chamber followed by two days in a lighted dew chamber) to permit spores to germinate and infect the leaf. The plants were then transferred to a greenhouse until disease developed on untreated control plants. […] The effectiveness of the test compounds at controlling disease when sprayed on leaves was determined by assessing the severity of disease on treated plants, then converting the severity to percent control based on the level of disease on untreated, inoculated plants.

[2] = system: Pyricularia oryzae; experiment: whole plant or invertebrate; conditions: foliar, read-out: Activity against Fungal Diseases PYRIOR (percent disease control)
[3] = system: Puccinia recondita tritici; experiment: Leaf Rust of Wheat foliar spray test, inoculated one day after treatment; conditions: wheat plants, read-out: Activity against Fungal Diseases PUCCRT (percent disease control); for pest or weed control at 200 ppm: applied to foliage at 200 ppm; for pest or weed control at 3 ppm: Tested at 3 ppm
Description: as §1, with “3-8” for “3-10”, “compounds.” for “compound.”, “Puccinia recondita” for “Septoria”, “overnight” for “(one day in a dark dew chamber followed by two days in a lighted dew chamber)”

| SMILES | pest or weed control at 25 ppm [1] [%] | pest or weed control at 200 ppm [2] [%] | pest or weed control at 200 ppm [3] [%] | pest or weed control at 200 ppm [1] [%] | pest or weed control at 3 ppm [3] [%] |
| --- | --- | --- | --- | --- | --- |
| FC(F)(F)COc1ccc(CCNc2ncnc3scnc23)cn1 [Compound 4, thiazolo[5,4-d]pyrimidin-7-yl-{2-[6-(2,2,2-trifluoroethoxy)-pyridin-3-yl]-ethyl}-amine] | 0 to 49 | 80 to 100 | 80 to 100 | – | – |
| Cc1cc(O)ccc1CCNc1ncnc2scnc12 [Compound 57, 3-methyl-4-[2-(thiazolo[5,4-d]pyrimidin-7-ylamino)-ethyl]-phenol] | – | – | 0 to 49 | 0 to 49 | – |
| COc1ccc(CCNc2ncnc3scnc23)c(C)c1 [Compound 56, [2-(4-methoxy-2-methylphenyl)-ethyl]-thiazolo[5,4-d]pyrimidin-7-ylamine] | – | – | 0 to 49 | 50 to 79 | – |
| Cc1cc(CCN(c2nc(C(F)(F)F)c(Cl)s2)c2ncnc3scnc23)ccc1Oc1nc(C(F)(F)F)c(Cl)s1 [Compound 45, (5-chloro-4-trifluoromethylthiazol-2-yl)-{2-[4-(5-chloro-4-trifluoromethylthiazol-2-yloxy)-3-methylphenyl]-ethyl}-thiazolo[5,4-d]pyrimidin-7-ylamine] | 0 to 49 | – | – | – | 0 to 49 |
| Oc1ccc(CCNc2ncnc3scnc23)cc1 [Compound 3, 4-[2-(thiazolo[5,4-d]pyrimidin-7-ylamino)-ethyl]-phenol] | 0 to 49 | 0 to 49 | 0 to 49 | – | – |
| Fc1cc(Oc2cc(C(F)(F)F)ncn2)ccc1CCNc1ncnc2scnc12 [Compound 63, {2-[2-fluoro-4-(6-trifluoromethylpyrimidin-4-yloxy)-phenyl]-ethyl}-thiazolo[5,4-d]pyrimidin-7-ylamine] | – | – | 80 to 100 | 80 to 100 | – |
| COc1ccc(CCNc2ncnc3scnc23)c(F)c1 [Compound 55, [2-(2-fluoro-4-methoxyphenyl)-ethyl]-thiazolo[5,4-d]pyrimidin-7-ylamine] | – | – | 80 to 100 | 0 to 49 | – |
| N#Cc1ccnc(Oc2ccc(CCNc3ncnc4scnc34)cc2)c1 [Compound 2, 2-{4-[2-(thiazolo[5,4-d]pyrimidin-7-ylamino)-ethyl]-phenoxy}-isonicotinonitrile] | 50 to 79 | 80 to 100 | 80 to 100 | – | – |
| FC(F)(F)c1ccc(Oc2ccc(CCNc3ncnc4scnc34)cc2)nc1 [Compound 50, thiazolo[5,4-d]pyrimidin-7-yl-{2-[4-(5-trifluoromethylpyridin-2-yloxy)-phenyl]-ethyl}-amine] | 80 to 100 | – | – | – | 80 to 100 |
| Oc1ccc(CCNc2ncnc3scnc23)c(F)c1 [Compound 58, 3-fluoro-4-[2-(thiazolo[5,4-d]pyrimidin-7-ylamino)-ethyl]phenol] | – | – | 0 to 49 | 0 to 49 | – |
| COc1cc(CCNc2ncnc3scnc23)ccc1Oc1c(Cl)cnc(C(F)(F)F)c1Cl [Compound 48, {2-[4-(3,5-dichloro-2-trifluoromethylpyridin-4-yloxy)-3-methoxyphenyl]-ethyl}-thiazolo[5,4-d]pyrimidin-7-ylamine] | – | 80 to 100 | 80 to 100 | 80 to 100 | – |
| COc1cc(CCNc2ncnc3scnc23)ccc1Oc1cnccc1C(F)(F)F [Compound 29, {2-[3-methoxy-4-(4-trifluoromethylpyridin-3-yloxy)-phenyl]-ethyl}-thiazolo[5,4-d]pyrimidin-7-ylamine] | 50 to 79 | – | – | – | 80 to 100 |
| COc1cc(CCNc2ncnc3scnc23)ccc1Oc1cc(C(F)(F)F)ccn1 [Compound 17, {2-[3-methoxy-4-(4-trifluoromethylpyridin-2-yloxy)-phenyl]-ethyl}-thiazolo[5,4-d]pyrimidin-7-ylamine] | 80 to 100 | – | – | – | 80 to 100 |
| Cc1cc(CCNc2ncnc3scnc23)ccc1Oc1ccncc1C(F)(F)F [Compound 47, {2-[3-methyl-4-(3-trifluoromethylpyridin-4-yloxy)-phenyl]-ethyl}-thiazolo[5,4-d]pyrimidin-7-ylamine] | – | 80 to 100 | 80 to 100 | 80 to 100 | – |
| COc1cc(CCNc2ncnc3scnc23)ccc1Oc1cc(C(F)(F)F)ncn1 [Compound 54, {2-[3-methoxy-4-(6-trifluoromethylpyrimidin-4-yloxy)-phenyl]-ethyl}-thiazolo[5,4-d]pyrimidin-7-ylamine] | – | – | 80 to 100 | 80 to 100 | – |
| COc1cc(CCNc2ncnc3scnc23)ccc1Oc1ccc(C(F)(F)F)cn1 [Compound 51, {2-[3-methoxy-4-(5-trifluoromethylpyridin-2-yloxy)-phenyl]-ethyl}-thiazolo[5,4-d]pyrimidin-7-ylamine] | 80 to 100 | – | – | – | 80 to 100 |
| COc1ccc(CCNc2ncnc3scnc23)cc1C [Compound 19, [2-(4-methoxy-3-methylphenyl)-ethyl]-thiazolo[5,4-d]pyrimidin-7-ylamine] | – | – | 80 to 100 | 50 to 79 | – |
| Cc1cc(CCNc2ncnc3scnc23)ccc1O [Compound 20, 2-methyl-4-[2-(thiazolo[5,4-d]pyrimidin-7-ylamino)-ethyl]-phenol] | – | – | 0 to 49 | 0 to 49 | – |
| Fc1nc(F)c(F)c(Oc2ccc(CCNc3ncnc4scnc34)cc2)c1F [Compound 5, {2-[4-(2,3,5,6-tetrafluoropyridin-4-yloxy)-phenyl]-ethyl}-thiazolo[5,4-d]pyrimidin-7-ylamine] | 0 to 49 | – | – | – | 80 to 100 |
| COc1ccc(C(C)Nc2ncnc3scnc23)cc1 (stereo not shown) [Compound 1, [1-(4-Methoxyphenyl)-ethyl]-thiazolo[5,4-d]pyrimidin-7-yl-amine] | – | 80 to 100 | 80 to 100 | – | – |
| Fc1cc(Oc2cc(C(F)(F)F)ccn2)ccc1CCNc1ncnc2scnc12 [Compound 60, {2-[2-fluoro-4-(4-trifluoromethylpyridin-2-yloxy)-phenyl]-ethyl}-thiazolo[5,4-d]pyrimidin-7-ylamine] | – | – | 80 to 100 | 80 to 100 | – |
| CC(Cc1ccc(Oc2c(F)cnc(C(F)(F)F)c2F)cc1)Nc1ncnc2scnc12 (stereo not shown) [Compound 14, {2-[4-(3,5-Difluoro-2-trifluoromethylpyridin-4-yloxy)-phenyl]-1-methyl-ethyl}-thiazolo[5,4-d]pyrimidin-7-ylamine] | 80 to 100 | – | – | – | 0 to 49 |
